“And” between values parts separate entries of the source, which are not always exact repeats. Equal values may be shown once.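 How tested: cells in 96-well plates exposed to compound for 48 hours at five concentrations. At the GI50, growth is halved. TGI marks complete inhibition of growth.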
What was measured:
Assay in all cases: NCI tumour cell line growth inhibition, 48 h
OVCAR-5 ovarian = tested on: OVCAR-5 ovarian
MOLT-4 leukemia = tested on: MOLT-4 leukemia
SK-MEL-2 melanoma = tested on: SK-MEL-2 melanoma
T-47D breast = tested on: T-47D breast
CCRF-CEM leukemia = tested on: CCRF-CEM leukemia
OVCAR-4 ovarian = tested on: OVCAR-4 ovarian
786-0 renal = tested on: 786-0 renal
SN12C renal = tested on: SN12C renal
NCI-H522 lung = tested on: NCI-H522 lung
UO-31 renal = tested on: UO-31 renal

Compound	GI50 (OVCAR-5 ovarian)	TGI (OVCAR-5 ovarian)	GI50 (MOLT-4 leukemia)	TGI (MOLT-4 leukemia)	GI50 (SK-MEL-2 melanoma)	TGI (SK-MEL-2 melanoma)	GI50 (T-47D breast)	TGI (T-47D breast)	GI50 (CCRF-CEM leukemia)	TGI (CCRF-CEM leukemia)	GI50 (OVCAR-4 ovarian)	TGI (OVCAR-4 ovarian)	GI50 (786-0 renal)	TGI (786-0 renal)	GI50 (SN12C renal)	TGI (SN12C renal)	GI50 (NCI-H522 lung)	TGI (NCI-H522 lung)	GI50 (UO-31 renal)	TGI (UO-31 renal)
C[As](C)SCC(COC(=O)c1ccccc1)OC(=O)c1ccccc1 (centres undefined)	0.556 µM	2 µM	0.013 µM	0.154 µM	0.4 µM	2.8 µM	0.0452 µM	3.84 µM	0.0305 µM	0.759 µM	1.74 µM	> 32.2 µM	0.1 µM	0.556 µM	0.23 µM	1.23 µM	0.0836 µM	2.92 µM	0.763 µM	8.06 µM
CN(C)c1ccc(/C=C/C(=O)c2ccc(Nc3nc(Nc4ccc(F)cc4)nc(Nc4ccc(Cl)cc4)n3)cc2)cc1	20.3 µM	> 100 µM	1.55 µM	5.23 µM	4.6 µM	18.6 µM	3.33 µM	45.2 µM	2.57 µM	9.44 µM	10.7 µM	> 100 µM	2.71 µM	14.1 µM	15.3 µM	> 100 µM	3.17 µM	24.1 µM	3.22 µM	21.4 µM
COc1ccc(N2CCN(CC(=O)N3CCN(c4nnc(-c5ccc(Cl)cc5)c(-c5ccc(Cl)cc5)n4)CC3)CC2)cc1	> 100 µM	> 100 µM	3.1 µM	> 100 µM	25.8 µM	> 100 µM	3.64 µM	> 100 µM	12.6 µM	> 100 µM	8.8 µM	> 100 µM	10 µM	> 100 µM	24.8 µM	> 100 µM	9.2 µM	> 100 µM	2.8 µM	> 100 µM
COc1cccc2c1C(=N)c1c(O)c3c(c(O)c1C2=O)C[C@@](O)(C(C)=O)C[C@@H]3OC1CC(N)C(O)C(C)O1 (some centres undefined)						4.6 µM and 6.27 µM and 1.23 µM	0.0174 µM	4.86 µM		0.473 µM and 0.975 µM		7.58 µM and 7.84 µM and 8 µM	0.0766 µM			1.28 µM and 1.92 µM and 2.23 µM		2.4 µM and 1.13 µM and 1.91 µM		
CNCc1ccc(C)c(NC(=O)c2ccc(Nc3nc(-c4ccccc4)c4ccccc4n3)cc2)c1	2.13 µM	4.56 µM	2.1 µM	4.76 µM	1.9 µM	3.66 µM	2.26 µM	5.59 µM	2.07 µM	5.43 µM	1.84 µM	4.79 µM	1.76 µM	3.3 µM			1.86 µM	3.57 µM	1.67 µM	3.75 µM
CC[N+]1(C)CCC(O)(/C=C/c2ccccc2)C(C(=O)/C=C/c2ccccc2)C1 (centres undefined)		36.1 µM		7.11 µM		39.5 µM		40.4 µM		10.8 µM		43.7 µM		13.9 µM		18 µM		3.78 µM		29.5 µM
N#Cc1c(-c2ccc(Cl)cc2)n([O-])c2ccccc2[n+]1=O	16.7 µM	30.6 µM	2.31 µM	4.77 µM	37.3 µM	> 100 µM	6.47 µM	25.8 µM	2.63 µM	8.2 µM	2.94 µM	8.82 µM	12.5 µM	25 µM	15.5 µM	37.2 µM	14.7 µM	38.5 µM	13.7 µM	29.7 µM
NC(=O)NOCC1NC(=O)NC1=O (centres undefined)		> 100 µM		> 100 µM		> 100 µM		> 100 µM		> 100 µM		> 100 µM		> 100 µM		> 100 µM		> 100 µM		> 100 µM
COc1ccc(-c2nccn2-c2cc(OC)c(OC)c(OC)c2)cc1	10.8 µM	> 79.4 µM	18.3 µM	> 100 µM	36.1 µM	> 100 µM	9.55 µM	> 100 µM	8.13 µM	> 100 µM	15.3 µM	> 100 µM	13.6 µM	> 100 µM	9.81 µM	> 100 µM	2.8 µM	> 100 µM	9.38 µM	> 93 µM
CCOC(=O)c1ccccc1NC(c1ccccc1)c1ccc2cccnc2c1O (centres undefined)	8.64 µM	> 100 µM	2.54 µM	> 100 µM	3.74 µM	45.1 µM	4.22 µM	> 100 µM	2.32 µM	> 100 µM	3.21 µM	> 100 µM	3.39 µM	> 100 µM	3.83 µM	> 100 µM	3.36 µM	11.6 µM	2.03 µM	> 100 µM
COc1ccc(/C=C2\CN(Cc3cn(CCCNc4ccnc5cc(Cl)ccc45)nn3)C/C(=C\c3ccc(OC)cc3)C2=O)cc1	21 µM	44.2 µM	2.55 µM	9.4 µM	9.85 µM	39.6 µM	21 µM	51.1 µM	2.39 µM	7.01 µM	7.37 µM	28.1 µM	14.3 µM	30.3 µM	13.1 µM	33.8 µM	10.3 µM	21.9 µM	3.85 µM	21.4 µM
C=CC(=O)N1CC[C@@H](Oc2nc(Nc3ccc(N4CCC(N5CCN(C)CC5)CC4)cc3)c(C(N)=O)nc2CC)C1	> 100 µM	> 100 µM	> 100 µM	> 100 µM	> 100 µM	> 100 µM	> 100 µM	> 100 µM	> 100 µM	> 100 µM	> 100 µM	> 100 µM	> 100 µM	> 100 µM	> 100 µM	> 100 µM	> 100 µM	> 100 µM	> 100 µM	> 100 µM
COc1ccc(/C(C)=C(\c2ccc(Cl)cc2)c2ccc(OCCN3CCCCC3)cc2)cc1F	3.06 µM	9.45 µM	3.4 µM	11.3 µM	3.53 µM	7.65 µM	4.25 µM	14.5 µM	3.98 µM	16.1 µM	2.99 µM	8.99 µM	2.69 µM	5.3 µM	2.75 µM	7.24 µM	3.54 µM	7.94 µM	2.05 µM	4.21 µM
COc1c(C)cnc(Cn2cnc3c(Cl)nc(N)nc32)c1C	1.13 µM	> 100 µM	0.281 µM	> 100 µM	0.434 µM	> 59.5 µM	0.11 µM	> 100 µM	0.097 µM	> 100 µM	7.17 µM	> 100 µM	0.937 µM	> 100 µM	0.336 µM	> 100 µM	0.261 µM	12.9 µM	0.141 µM	> 47.4 µM
COc1cc2c(c(OC)c1OC)-c1c(c3ccc([N+](=O)[O-])cc3c(=O)n1CCCN=[N+]=[N-])C2=O	> 100 µM	> 100 µM	> 100 µM	> 100 µM	2.49 µM	22.9 µM	34.8 µM	> 100 µM	> 100 µM	> 100 µM	19.4 µM	60.9 µM	15.4 µM	43.8 µM	30.4 µM	> 100 µM	0.251 µM	5.71 µM	4.92 µM	72.5 µM
COc1ccc(C(=O)CC(Cl)=C(Cl)Cl)cc1	22.6 µM	50.4 µM	19.7 µM	64.2 µM	44.4 µM	> 100 µM	26.2 µM	61.9 µM	30.3 µM	> 100 µM	19.8 µM	56.1 µM	21.7 µM	44.7 µM	34.6 µM	> 100 µM	34.3 µM	81.5 µM	25.8 µM	54.7 µM
O=C1C2=C(Nc3cc([N+](=O)[O-])ccc3N2)OC1c1c[nH]c2ccc(COc3ccccc3)cc12 (centres undefined)		> 100 µM		40.4 µM		> 100 µM		> 100 µM				> 100 µM		> 100 µM		> 100 µM		> 100 µM		> 100 µM
CCCCCCCCCCCCOC1C(C(COC2OC(C(O)CO)C3OC(C)(C)OC23)OC(=O)Nc2ccc([N+](=O)[O-])cc2)OC2OC(C)(C)OC21 (centres undefined)	5.41 µM	19.1 µM			2.09 µM	5.09 µM	4.71 µM	16.9 µM			7.09 µM	23.5 µM	1.7 µM	3.15 µM	1.78 µM	3.52 µM	1.92 µM	3.9 µM	3.62 µM	12.9 µM
COc1cc(OC)c(-c2oc3ccccc3c(=O)c2O)c(OC)c1		> 100 µM		> 100 µM				> 100 µM		> 100 µM				> 100 µM		> 100 µM		> 29.2 µM		> 100 µM
Oc1ccc(-c2nc(-c3ccc4oc5ccc(-c6[nH]c(-c7ccc(O)cc7)nc6-c6ccccc6)cc5c4c3)c(-c3ccccc3)[nH]2)cc1	12.1 µM	25.4 µM	2.34 µM	7.09 µM			4.66 µM	> 100 µM			18 µM	96.9 µM	5.75 µM	29.8 µM	3.39 µM	27 µM	2.95 µM	8.02 µM	6.96 µM	22.8 µM
CC(C)(O)C1CC(=O)C(C)(C2C(O)CC3(C)C4CC=C5C(CCC(O)C5(C)C)C4(C)C(=O)CC23C)O1 (centres undefined)		> 100 µM		> 100 µM		> 100 µM		> 100 µM				> 100 µM		> 100 µM		> 100 µM		> 100 µM		> 100 µM
O=C1c2cccc3cc4ccccc4c(c23)C(=O)N1CCCNCCNCCCN1C(=O)c2cccc3cc4ccccc4c(c23)C1=O		1.98 µM		1.36 µM				2.54 µM				1.58 µM		1.69 µM		1.86 µM		1.46 µM		1.96 µM
CCCC1C2=C(C(=O)OC2=O)C2C(CC)CC3=C(C(=O)OC3=O)C12 (centres undefined)		> 100 µM		> 100 µM		> 100 µM		> 100 µM		> 100 µM				> 100 µM		> 100 µM				> 100 µM
Oc1c(Br)cc(Br)c2cccnc12	6.21 µM	49.5 µM	3 µM	8.49 µM			3.03 µM	18.4 µM	2.63 µM	8.83 µM	4.09 µM	97 µM	2.52 µM	5.91 µM	3.23 µM	35.2 µM			2.56 µM	16.5 µM
Cc1ccc(S(=O)(=O)NC(CCCCN)C(=O)CCl)cc1 (centres undefined)	> 100 µM	> 100 µM	86.6 µM	> 100 µM	67.5 µM	> 100 µM	> 100 µM	> 100 µM			> 100 µM	> 100 µM	73.2 µM	> 100 µM	35.6 µM	77.2 µM	31 µM	> 100 µM	> 100 µM	> 100 µM
COc1ccc(C2CC(c3cccc(Nc4ccnc5cc(Cl)ccc45)c3)=NN2c2ccc(Cl)cc2)cc1 (centres undefined)	15.6 µM	87 µM	3.18 µM	69.5 µM	11.5 µM	38.9 µM	0.702 µM	33.2 µM	1.84 µM	43.4 µM			2.94 µM	44 µM	13 µM	> 100 µM	4.09 µM	23.2 µM	1.87 µM	31.3 µM
O=C1OC2C(O)COC2(OCc2c[nH]c3ccccc23)C1O (centres undefined) (tested in a mixture with another compound)		> 100 µM		> 100 µM		> 100 µM				> 100 µM		> 100 µM		> 100 µM		> 100 µM		> 100 µM		> 100 µM
COc1ccc(/C=C(\NC(=O)c2ccccc2)c2nc3ccccc3[nH]2)cc1		84.5 µM		83.1 µM		48.4 µM				> 100 µM		> 100 µM		> 100 µM		> 100 µM		> 100 µM		74.5 µM
COc1cc(C2C(C(=O)Nc3ccc(Cl)c(Cl)c3)=C(C)NC(C)=C2C(=O)Nc2ccc(Cl)c(Cl)c2)ccc1O		38.8 µM		26.9 µM		23.5 µM				13.5 µM		23 µM		25.3 µM		30.9 µM		14.7 µM		25.6 µM

From PubChem BioAssay (NCI)
